Reference: PMC9917023, “Stabilization of Monomeric Tau Protein by All D-Enantiomeric Peptide Ligands as Therapeutic Strategy for Alzheimer’s Disease and Other Tauopathies” (International Journal of Molecular Sciences, 2023)

System: brain endothelial cells (RBMVEC) and astroglial cells (CTX TNA2)
Experimental: Each peptide was tested at different time points in triplicate next to an unseeded negative control (“Empty”) and quantitatively analyzed via HPLC using a calibration curve to determine the concentration of the peptide in the receiving chamber at each point in time (Figure 11). From these values, the volume of each chamber, and the respective time, a Papp permeability coefficient in cm²/s was calculated for each substance to represent its ability to cross the in vitro blood–brain barrier model.
An amount equaling 1 mg/mL TF2D-5 (A) or TF2D-5a (B) was added to an insert that was seeded and covered with endothelial and astroglial cells, representing the in vitro blood–brain barrier, or an empty insert serving as a control. After different time points, samples were taken and analyzed by quantitative HPLC analysis. Data given as mean ± SD out of three independent replicates.
Brain endothelial cells from rats and astroglial cells were used to cultivate the different sides of the porous membrane.
Brain endothelial cells from rats (RBMVEC, Cell Applications Inc., R840-05a, San Diego, CA, USA) were cultivated in Complete Classic medium (Cell Systems, Kirkland, WA, USA, 4Z0-500), and rat astroglial cells (CTX TNA2, ATCC, CRL-2006) were cultivated in Complete Classic medium (Cell Systems, Kirkland, WA, USA, 4Z0-500). The cells were allowed to grow in a humidified incubator with 5% CO2 at 37 °C and a maximum of 20 passages. The cells were passaged every 3 to 5 days, according to their confluence.
In order to set up the in vitro BBB model, the astroglial cells were seeded at a density of 600.000 cells/cm² on the outer (basolateral, “brain”) side of an insert with a porous membrane (Corning Transwell polycarbonate membrane cell culture inserts, CLS3415, 3 µM pore size) and allowed to grow/adhere overnight in the Complete Classic medium. The next day, brain endothelial cells were seeded at a density of 600.000 cells/cm² on the inner side (apical, “blood”) of the corresponding membrane. The seeded inserts were then cultivated to grow to full confluence over a period of 5 to 7 days, with the medium renewed daily. […] Prior to this, TEER (transendothelial electrical resistance values) were measured in each well to ensure the integrity of the in vitro BBB. At 0, 30, 60, 90, 120, 150, 180, and 240 min, 50 µL of the medium out of the outer chamber was taken and analyzed by HPLC. This 50 µL would then be replaced by the same amount of fresh serum-free medium to keep the fluid levels equal across both chambers. This slight dilution was factored into the following calculations. Furthermore, a dilution series of each reagent was analyzed alongside the samples as a calibration to quantify the analysis. […] The Papp values were calculated as follows (higher is better): Papp =(V/A∗C)∗(Dc/Dt)

Cn1c(=O)c2c(ncn2C)n(C)c1=O [Caffeine, reference compound]
Papp permeability coefficient: 31.8 ×10⁻⁶ cm/s

O=C1OC2(c3ccc(O)cc3Oc3cc(O)ccc32)c2ccccc21 [Fluorescein, reference compound]
Papp permeability coefficient: 0.886 ×10⁻⁶ cm/s
